Data on one molecule can be found in patent publication US10774080B2, “Pyrimidine compound as JAK kinase inhibitor” (THERAVANCE BIOPHARMA R&D IP, LLC, priority 2017, dated 2020).

Assay [1] deals with IL-31-induced production of pSTAT3 in mouse skin. Put plainly: Assay 9: in vivo IL-31-pSTAT3 JAK target engagement in mice. More on the design: species or system Balb/c mice. As to conditions: topical ointment 25 μl/cm^2, 30 minutes before intradermal IL-31, biopsy one hour after IL-31. The source says: Assay 9: In Vivo IL-31-pSTAT3 JAK Target Engagement Assay in Mice
An in vivo model of IL-31-induced production of phosphorylated signal transducer and activator of transcription 3 (pSTAT3) in mice was used to assess local target engagement on mouse skin.
The JAK/STAT (janus kinase/signal transducer and activator of transcription) signaling pathway is a key element in the communication between immune cells and is mainly activated through cytokine receptors. Binding of cytokine IL-31 leads to the activation and phosphorylation of JAK1/JAK2 tyrosine kinases which in turn leads to the phosphorylation of STAT3 (pSTAT3). The activated STAT then translocates into the nucleus and directly regulates the transcription of cytokine-sensitive genes. In these studies, Balb/c mice were dosed with an ointment formulation of compound (I). Ointment vehicle (Table 9) or compound (I) formulated in the ointment vehicle was applied topically to shaved skin (25 μl/cm^2) 30 minutes before the intradermal injection (50 μl/1×1 cm2 site) of IL-31 (1 μg/ml) at a 1×1 cm^2 shaved area of skin on the back between the ears. One hour after IL-31, skin biopsies were collected. The tissue samples were flash frozen and analyzed for pSTAT3 by ELISA and compound concentration. Compound (I) inhibited pSTAT3 production by 80% and the skin tissue concentration of compound (I) was 62 μM.

A further assay relates to CCL2 gene expression. Put plainly: Assay 7: ex vivo JAK PD assay, freshly excised human skin, CCL2. The following applies: 0.5% ointment, about 40 hours continuous exposure, Th1-skewed stimulation (TNFα, IFNγ, IL-12), vs vehicle. How it is done: Assay 7: Ex Vivo JAK Pharmacodynamic (PD) Assay Using Human Freshly Excised Skin An ex vivo JAK pharmacodynamics (PD) assay was conducted using human isolated skin tissue. The PD assay used fresh human skin (dermatome of 750 μm thickness) that was mounted in static Franz cells with a surface area of ˜0.5 cm^2. The receiver chambers of the Franz cells were filled with warm (37° C.) cornification media and placed in an incubator at 37° C. The skin was topically dosed with 10 μL ([…]) of compound (I) or vehicle and was left undisturbed overnight (˜24 hours). The next day, with no re-application of the test compound or vehicle, the media was replaced with a Th1-skewed stimulation cocktail consisting of TNFα, IFNγ and IL-12. The skin was left undisturbed for an additional 16 hours, and then harvested and processed for RNA extraction and qPCR of biomarkers: CXCL10, CCL2. GAPDH was used as an internal standard. The compound (I) was formulated in an ointment formulation at 0.5% strength. A total of three skin donors (tested in quadruplicates/sample/treatment) were used. Treatment effect was calculated as the percent increase or decrease in stimulation compared to the vehicle group. [table]

The next assay addresses T1, JAK3 (Homo sapiens, UniProt P52333).
T1 construct: GST; purchased Life Technologies
T1 sequence (P52333 1-1124): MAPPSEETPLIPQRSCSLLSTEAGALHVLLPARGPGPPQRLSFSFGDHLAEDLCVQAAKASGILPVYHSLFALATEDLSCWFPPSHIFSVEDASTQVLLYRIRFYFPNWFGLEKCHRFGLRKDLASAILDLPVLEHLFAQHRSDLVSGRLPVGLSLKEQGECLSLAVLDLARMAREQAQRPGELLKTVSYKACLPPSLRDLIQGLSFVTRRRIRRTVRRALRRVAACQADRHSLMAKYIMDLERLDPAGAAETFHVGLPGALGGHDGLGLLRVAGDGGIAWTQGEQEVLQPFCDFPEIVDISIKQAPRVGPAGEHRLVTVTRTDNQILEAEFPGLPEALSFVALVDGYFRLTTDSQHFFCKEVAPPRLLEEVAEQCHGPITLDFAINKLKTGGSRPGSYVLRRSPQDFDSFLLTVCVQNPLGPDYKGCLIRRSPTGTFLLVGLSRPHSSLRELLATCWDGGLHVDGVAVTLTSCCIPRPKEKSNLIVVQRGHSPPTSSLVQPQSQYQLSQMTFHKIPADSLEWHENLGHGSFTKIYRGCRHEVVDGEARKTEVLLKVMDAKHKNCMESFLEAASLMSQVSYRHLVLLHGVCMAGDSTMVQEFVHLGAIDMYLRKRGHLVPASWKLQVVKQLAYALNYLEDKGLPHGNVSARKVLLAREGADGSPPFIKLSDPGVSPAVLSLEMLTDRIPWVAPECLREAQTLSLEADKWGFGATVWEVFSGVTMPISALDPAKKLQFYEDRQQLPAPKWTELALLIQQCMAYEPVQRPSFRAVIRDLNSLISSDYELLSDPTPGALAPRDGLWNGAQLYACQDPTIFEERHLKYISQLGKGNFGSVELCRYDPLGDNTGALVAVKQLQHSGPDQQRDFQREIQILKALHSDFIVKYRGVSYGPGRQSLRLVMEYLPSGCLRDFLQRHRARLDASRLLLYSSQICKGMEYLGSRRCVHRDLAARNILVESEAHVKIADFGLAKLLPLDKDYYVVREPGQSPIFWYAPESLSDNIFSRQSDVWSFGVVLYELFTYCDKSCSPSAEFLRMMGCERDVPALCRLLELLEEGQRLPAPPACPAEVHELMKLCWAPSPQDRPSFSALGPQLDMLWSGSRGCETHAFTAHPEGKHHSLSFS
In words: Biochemical JAK kinase assay (LanthaScreen), JAK3. The following applies: converted from pIC50 by Cheng-Prusoff; ATP at Km 1.6 μM; read-out: JAK 3 (pKi) (converted). The procedure:
Assay 1: Biochemical JAK and Tyk2 Kinase Assays A panel of four LanthaScreen JAK biochemical assays (JAK1, 2, 3 and Tyk2) were carried in a common kinase reaction buffer (50 mM HEPES, pH 7.5, 0.01% Brij-35, 10 mM MgCl2, and 1 mM EGTA). Recombinant GST-tagged JAK enzymes and a GFP-tagged STAT1 peptide substrate were obtained from Life Technologies. Serially or discretely diluted compounds were pre-incubated with each of the four JAK enzymes and the substrate in white 384-well microplates (Corning) at ambient temperature for 1 h. ATP was subsequently added to initiate the kinase reactions in 10 μL total volume, with 1% DMSO. […] The plates were allowed to incubate at ambient temperature for 1 h before being read on the EnVision reader (Perkin Elmer). Emission ratio signals (520 nm/495 nm) were recorded and utilized to calculate the percent inhibition values based on DMSO and background controls. For dose-response analysis, percent inhibition data were plotted vs. compound concentrations, and IC50 values were determined from a 4-parameter robust fit model with the Prism software (GraphPad Software). Results were expressed as pIC50 (negative logarithm of IC50) and subsequently converted to pKi (negative logarithm of dissociation constant, Ki) using the Cheng-Prusoff equation.
(TR-FRET usually uses a lanthanide donor and a delayed reading to cut background.)

Regarding `CCS(=O)(=O)N1[C@@H]2CCC[C@H]1C[C@H](N(C)c1nc(CO)c(F)c(Nc3cc(C)[nH]n3)n1)C2` [Compound (I), (2-(((1R,3s,5S)-9-(ethylsulfonyl)-9-azabicyclo[3.3.1]nonan-3-yl)(methyl)amino)-5-fluoro-6-((5-methyl-1H-pyrazol-3-yl)amino)pyrimidin-4-yl)methanol], the “inhibition of IL-31-induced pSTAT3 production” value in assay [1] was 80%. The “PD-% Inhibition (mean ± SD) CCL2” value in the assay with CCL2 gene expression is recorded as 61.3%. Moreover, the Ki at JAK3 was 794 pM.
